Results: patent US20030198617A1, “Pharmaceutical tryptophan containing dipeptide compositions and methods of use thereof” (priority 1993, published 2003)
Marks after values point to notes of the source that are not given here.

Test: Prolonged IM862 therapy trials in irradiated patients, blood parameters
Assay type: in vivo, human
Description: The group of patients described in Example 42 were further treated for a period of […] and tested again subsequent to the first stage of therapy (after 4 months) and after the second stage of therapy (6 months).

[1] = after the 1st stage of IM862 use
[2] = after the 2nd state of IM862 use

With Glu-Trp [IM862] the “CD2-DR+, %” value [1] was 22.3 ± 0.5%, the “CD2-DR+, abs” value [1] was 0.34 ± 0.05* 10^9/l and the “CD3, %” value [1] was 35 ± 4 %. For the same substance, the “CD3, abs” value [1] was 0.49 ± 0.06* 10^9/l, the “CD4, %” value [1] was 19.5 ± 1.7 % and the “CD4, abs” value [1] was 0.28 ± 0.03* 10^9/l. The “CD8, %” value [1] was 15.4 ± 2.3%, the “CD8, abs” value [1] was 0.23 ± 0.03 10^9/l and the “CD19, %” value [1] was 15.0 ± 2.8%. The “CD19, abs” value [1] was 0.21 ± 0.06 10^9/l, the “Leukocytes, abs” value [1] was 4.7 ± 0.2* 10^9/l and the “Lymphocytes, abs” value [1] was 1.5 ± 0.4 10^9/l. The “CD2-DR+, %” value [2] was 29 ± 3 %, the “CD2-DR+, abs” value [2] was 0.56 ± 0.08* 10^9/l and the “CD3, %” value [2] was 46 ± 3 %. The “CD3, abs” value [2] was 0.89 ± 0.11* 10^9/l, the “CD4, %” value [2] was 24.1 ± 1.5 % and the “CD4, abs” value [2] was 0.45 ± 0.04* 10^9/l. The “CD8, %” value [2] was 22.3 ± 2.2 %, the “CD8, abs” value [2] was 0.40 ± 0.05* 10^9/l and the “CD19, %” value [2] was 21.1 ± 2.1 %. The “CD19, abs” value [2] was 0.39 ± 0.06* 10^9/l, the “Leukocytes, abs” value [2] was 5.5 ± 0.3* 10^9/l and the “Lymphocytes, abs” value [2] was 1.9 ± 0.5* 10^9/l.
